From ChEMBL document CHEMBL1154640, “Application of desirability-based multi(bi)-objective optimization in the design of selective arylpiperazine derivates for the 5-HT1A serotonin receptor” (Eur J Med Chem, 2009) come the findings set out here.

The target in assay [1] is 5-hydroxytryptamine receptor 2A (Rattus norvegicus, UniProt P14842). As to the kind of experiment: Displacement of [3H]ketanserin from 5-HT2A receptor in Wistar Hannover rat brain cortex membrane.
Assay [2] has as its target T1, 5-hydroxytryptamine receptor 1A (Homo sapiens, UniProt P08908).
T1 sequence (P08908 whole entry): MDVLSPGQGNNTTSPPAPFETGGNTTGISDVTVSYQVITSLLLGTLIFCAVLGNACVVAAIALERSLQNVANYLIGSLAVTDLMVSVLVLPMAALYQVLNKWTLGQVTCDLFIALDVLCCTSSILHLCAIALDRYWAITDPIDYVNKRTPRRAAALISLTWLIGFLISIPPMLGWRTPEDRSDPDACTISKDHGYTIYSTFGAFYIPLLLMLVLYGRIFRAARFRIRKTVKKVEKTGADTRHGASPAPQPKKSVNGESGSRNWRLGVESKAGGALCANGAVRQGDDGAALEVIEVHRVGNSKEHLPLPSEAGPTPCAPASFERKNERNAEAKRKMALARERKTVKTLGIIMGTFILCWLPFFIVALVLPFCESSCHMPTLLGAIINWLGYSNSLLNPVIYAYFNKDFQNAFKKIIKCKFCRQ
In words: Displacement of [3H]8-OH-DPAT from human recombinant 5-HT1A receptor expressed in HEK293 cells after 120 mins. In kind it is cell-based.

Chain of 5-hydroxytryptamine receptor 2A (P14842 whole entry): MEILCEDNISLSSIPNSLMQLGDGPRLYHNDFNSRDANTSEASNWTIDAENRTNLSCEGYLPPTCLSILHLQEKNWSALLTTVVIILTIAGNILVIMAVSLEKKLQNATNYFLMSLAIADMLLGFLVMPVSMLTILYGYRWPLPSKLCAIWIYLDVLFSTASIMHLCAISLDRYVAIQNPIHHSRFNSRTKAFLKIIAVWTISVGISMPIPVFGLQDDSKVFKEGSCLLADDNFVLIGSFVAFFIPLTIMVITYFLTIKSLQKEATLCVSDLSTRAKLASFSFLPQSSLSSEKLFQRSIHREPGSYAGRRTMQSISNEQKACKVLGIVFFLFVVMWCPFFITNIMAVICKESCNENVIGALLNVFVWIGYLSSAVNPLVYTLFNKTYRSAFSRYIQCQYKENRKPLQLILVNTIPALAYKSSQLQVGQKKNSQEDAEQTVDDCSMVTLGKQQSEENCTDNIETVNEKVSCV

For the compound `O=c1c2ccccc2ncn1CCCN1CCN(c2cccc(Cl)c2)CC1`, the figures for the Ki in assay [1] and in assay [2] were 15.8 nM and 234 nM, respectively.
Turning to `O=c1ccc(=O)n(-c2ccccc2)n1CCCCN1CCN(c2cccc(Cl)c2)CC1`, the Ki was 1820 nM in assay [1] and 50.1 nM in assay [2].
In the same order, the values of `COc1ccccc1N1CCN(CCCCn2cnc3ccccc3c2=O)CC1` are 562 nM and 36.3 nM.
In the same order, the values of `COc1ccccc1N1CCN(CCCn2cnc3ccccc3c2=O)CC1` are 457 nM and 100 nM.
For `COc1ccccc1N1CCN(CCCn2c(=O)ccc(=O)n2-c2ccccc2)CC1`, in that order: 2140 nM and 53.7 nM.
Turning to `O=c1ccc(=O)n(-c2ccccc2)n1CCCN1CCN(c2cccc(Cl)c2)CC1`, the Ki in assay [1] is 269 nM; in assay [2] it was 204 nM.
For `O=c1c2ccccc2ncn1CCCCN1CCN(c2cccc(Cl)c2)CC1`, in that order: 67.6 nM and 50.1 nM.
In the same order, the values of `O=c1c2ccccc2c(=O)n(-c2ccccc2)n1CCCCN1CCN(c2cccc(Cl)c2)CC1` are 575 nM and 398 nM.
In the same order, the values of `COc1ccccc1N1CCN(CCCCn2c(=O)c3ccccc3c(=O)n2-c2ccccc2)CC1` are 372 nM and 42.7 nM.
On to `O=c1c2ccccc2c(=O)n(-c2ccccc2)n1CCCN1CCN(c2cccc(Cl)c2)CC1`, for which the Ki in assay [1] was 661 nM; in assay [2], 417 nM.
In the same order, the values of `COc1ccccc1N1CCN(CCCCn2c(=O)ccc(=O)n2-c2ccccc2)CC1` are 1450 nM and 11 nM.
In the same order, the values of `COc1ccccc1N1CCN(CCCn2c(=O)c3ccccc3c(=O)n2-c2ccccc2)CC1` are 302 nM and 30.2 nM.
